This note sets out measurements from patent EP4768487A1, “FUSED LACTAM RING COMPOUND AND USE THEREOF” (Chengdu Zenitar Biomedical Technology Co., Ltd., priority 2023, dated 2025).

Series [1] concerns BRCA wild-type DLD-1 cells. Kind of series: Anti-proliferative activity against cells (CCK8): DLD-1. The class given is cell-based. The following applies: Homo sapiens, 72 h + 96 h culture. In a few lines:
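DLD-1 cells (1000/well) in RPMI-1640 with 10% FBS, treated 24 h after plating with PARPi at 0, 1 or 10 µM final. Cultured 72 h, medium exchanged with re-added PARPi, then a further 96 h; read-out by CCK8.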

In series [2] the target is T1, hERG potassium ion channel (Homo sapiens, UniProt Q12809).
T1 construct: expressed in transfected cells; host or cells: CHO cells
T1 sequence (Q12809 whole entry): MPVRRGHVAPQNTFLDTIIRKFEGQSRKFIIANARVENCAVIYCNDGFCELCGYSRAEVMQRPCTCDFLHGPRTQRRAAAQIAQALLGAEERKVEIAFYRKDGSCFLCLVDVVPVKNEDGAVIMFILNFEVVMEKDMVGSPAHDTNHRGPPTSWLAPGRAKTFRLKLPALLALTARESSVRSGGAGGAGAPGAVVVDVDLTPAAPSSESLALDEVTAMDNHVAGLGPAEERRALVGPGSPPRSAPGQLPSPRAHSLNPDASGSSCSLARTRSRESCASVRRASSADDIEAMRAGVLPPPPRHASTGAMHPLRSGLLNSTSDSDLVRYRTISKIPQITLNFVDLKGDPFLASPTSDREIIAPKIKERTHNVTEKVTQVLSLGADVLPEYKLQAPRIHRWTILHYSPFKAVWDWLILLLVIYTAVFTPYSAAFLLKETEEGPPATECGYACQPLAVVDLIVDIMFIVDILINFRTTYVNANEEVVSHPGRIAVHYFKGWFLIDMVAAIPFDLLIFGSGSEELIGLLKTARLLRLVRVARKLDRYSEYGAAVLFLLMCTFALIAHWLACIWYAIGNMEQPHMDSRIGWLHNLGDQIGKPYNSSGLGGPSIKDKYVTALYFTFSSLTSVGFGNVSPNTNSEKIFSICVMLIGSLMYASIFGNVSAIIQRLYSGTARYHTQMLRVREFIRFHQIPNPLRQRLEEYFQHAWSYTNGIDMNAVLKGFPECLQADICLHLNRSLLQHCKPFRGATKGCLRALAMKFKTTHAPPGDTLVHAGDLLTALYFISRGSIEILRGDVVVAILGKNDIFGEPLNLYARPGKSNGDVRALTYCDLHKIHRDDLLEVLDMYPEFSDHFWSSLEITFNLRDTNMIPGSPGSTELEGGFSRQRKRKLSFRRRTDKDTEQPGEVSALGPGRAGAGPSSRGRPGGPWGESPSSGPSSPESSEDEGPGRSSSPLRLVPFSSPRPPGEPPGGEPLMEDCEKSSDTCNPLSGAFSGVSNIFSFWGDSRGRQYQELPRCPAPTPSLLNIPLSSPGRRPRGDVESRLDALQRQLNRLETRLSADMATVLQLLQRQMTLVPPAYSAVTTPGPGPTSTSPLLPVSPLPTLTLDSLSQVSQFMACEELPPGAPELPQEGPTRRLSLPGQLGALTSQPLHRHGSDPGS
Kind of series: Inhibition of hERG potassium ion channel (Qpatch, CHO cells stably expressing hERG). The following applies: for inhibitory effects on the hERG potassium ion channel (in words): conclusion of Table 17; for inhibition at 2.5 min, 20 µM: human, CHO cells stably expressing hERG, read-out: Inhibition rate at 20 µM. The class given is cell-based. As to the method: Cell culture and treatment: CHO cells stably expressing hERG were cultured in a cell culture flask and incubated in an incubator with 5% CO2 at 37 °C. When the cell density reached 60%-80%, the cell culture medium was removed by pipetting. The cells were washed once with PBS, and then Detachin was added for detachment. After complete detachment, a culture medium was added for neutralization. The cells were then centrifuged, and the supernatant was removed by pipetting. A culture medium was further added for resuspension, and the cell density was adjusted to (2-5) × 10^6 cells/mL for later use.
Compound preparation: The compound stock solution was diluted with 100% DMSO. Specifically, 10 µL of the compound stock solution was added to 20 µL of DMSO, followed by a 3-fold serial dilution to obtain 6 concentrations. 4 µL of each of the 6 compound solutions at different concentrations was taken and added to 396 µL of an extracellular fluid, resulting in a 100-fold dilution to obtain 6 intermediate concentrations. Then, 80 µL of each of the 6 intermediate-concentration compound solutions was taken and added to 320 µL of an extracellular fluid, resulting in a 5-fold dilution to achieve the final test concentrations. The highest test concentration was 40 µM. […] DMSO at this concentration has no effect on the hERG potassium channel. During the compound preparation, the entire dilution process was completed by a Bravo instrument.
Electrophysiological recording process: The single-cell high-impedance sealing and whole-cell mode formation processes were all completed automatically by a Qpatch instrument. After achieving the whole-cell recording mode, the cells were clamped at -80 mV. Before a 5-second +40 mV depolarizing stimulus was applied, a 50-millisecond -50 mV prepulse voltage was first applied. The potential was then repolarized to -50 mV and held for 5 s, and finally returned to -80 mV. This voltage stimulation was applied every 15 s. After 2 min of recording, the extracellular fluid was administered, followed by recording for 5 min. Then, the compound administration process began, starting from the lowest test compound concentration. Each test concentration was applied for 2.5 min. After all the concentrations were applied consecutively, the positive control compound, 3 µM Cisapride, was administered. At least 3 cells (n ≥ 3) were tested for each concentration.
Data processing: Data analysis and processing were performed using GraphPad Prism 5.0 and Excel software. The IC50 of the compound was calculated using GraphPad Prism 5 software by equation fitting as follows: Y = Bottom + (Top−Bottom)/(1+10^(∧)((LogIC50−X)*HillSLope)) [formula] where X is the Log value of the test concentration of the test sample, Y is the inhibition percentage at the corresponding concentration, and Bottom and Top are the minimum and maximum inhibition percentages, respectively. Table 17. Results of inhibition of hERG potassium ion channel by compounds

Series [3] is described as follows: Pharmacokinetic evaluation in Balb/c mice. Format: in vivo. The settings on record: 1mg/kg, PO; for AUC(0-t) / Cmax / half-life: male, mouse, plasma. As to the method: Experimental objective: To understand the pharmacokinetic profiles of the compounds. Experimental basis: Technical guidelines for non-clinical pharmacokinetic studies of chemical drugs, 2014.
Experimental scheme: The pharmacokinetic profiles of the compounds were investigated by intravenous administration (1 mg·kg^-1) and intragastric administration (1 mg·kg^-1) in Balb/c mice.
Sample preparation: About 0.2 mg of the compound was weighed out and dissolved in 10 µL of DMSO, and then a sodium chloride solution for injection was added to prepare a 0.1 mg·mL^-1 compound solution for later administration.
Three of the mice were subjected to intravenous administration (IV) at 1 mg·kg^-1, while the other three were subjected to intragastric administration (PO) at 1 mg·kg^-1. About 0.05 mL of blood was collected at 5 min, 15 min, 30 min, 1 h, 2 h, 4 h, 6 h, 8 h, 10 h, 24 h, and 48 h after administration. The collected blood was centrifuged at 3500 rpm for 15 min. The supernatant plasma was then collected and cryopreserved at -40 °C for later analysis. The plasma concentration was quantitatively analyzed using the LC-MS/MS method, and pharmacokinetic parameters such as […] (Cmax), area under plasma concentration-time curve (AUC(0-t)), half-life (T1/2), clearance rate (CL), tissue distribution (Vdss), and bioavailability (F) were calculated. Table 18. Results of pharmacokinetic test of compounds in Balb/c mice

The subject of series [4] is CD34+ hematopoietic stem and progenitor cells (hmPB34-P-SC). Put plainly: Hematological toxicity assay (CellTiter-Glo 2.0). The settings on record: 120 h; 5 days of culture. The class given is cell-based. As to the method:
The next day, the cells were resuspended and seeded in a 96-well plate at a concentration of 1000 cells/well, and meanwhile, different concentrations of the drug were added for treatment, with 3 replicate wells set for each concentration. After 5 days of culture, the number of viable cells in each well was determined using a CellTiter-Glo 2.0 kit, followed by detection by a microplate reader.
Background: ATP-based viability assays read luminescence as a measure of living cells.

A value given as a limit tells only on which side of the number the result lay.

Consider `CNC(=O)c1ccc(N2CCN(C[C@H]3CCc4nc(C)c(=O)[nH]c4C3)CC2)c(F)n1` [Example 45, (S)-6-Fluoro-N-methyl-5-(4-((2-methyl-3-oxo-3,4,5,6,7,8-hexahydroquinoxaline-6-yl)methyl)piperazin-1-yl)picolinamide], for which the IC50 (commonly the concentration at which inhibition is half-maximal) in series [1] is over 1 µM. Also, in series [2], the “inhibitory effects on the hERG potassium ion channel (in words)” value (from here on “inhibitory effects”) is recorded as “Conclusion: Compounds 2, 6, 45, 62, 67, 74, 83, 87, etc., of the present disclosure exhibited relatively weak inhibitory effects on the hERG potassium ion channel” and the inhibition (in general, the percentage by which the read-out fell short of the control) at 2.5 min, 20 µM is 13%. In addition, in series [3], the CL came out at 0.59 L/h/kg; the Vdss turned out to be 6.85 L/kg; the AUC(0-t) – broadly, exposure summed from dosing to a finite time, without extrapolation to infinity – turned out to be 1.54 µg·h/mL; the concentration peaked (Cmax) at 0.359 µg/mL. For the same compound, the half-life (usually the time in which the quantity being followed falls by half) in series [3] was 7.98 h. Further, the IC50 in series [4] was found to be 0.331 µM.
Turning to `CCc1cc2c([nH]c1=O)CC(CN1CCN(c3ccc(C(=O)NC)nc3F)CC1)OC2` (centres unmarked) [Compound 2, 5-(4-((3-Ethyl-2-oxo-1,5,7,8-tetrahydro-2H-pyrano[4,3-b]pyridin-7-yl)methyl)piperazin-1-yl)-6-fluoro-N-methyl picolinamide], the IC50 in series [1] is over 1 µM. For the same compound, in series [2], the “inhibitory effects” value is recorded as “Conclusion: Compounds 2, 6, 45, 62, 67, 74, 83, 87, etc., of the present disclosure exhibited relatively weak inhibitory effects on the hERG potassium ion channel” and the inhibition at 2.5 min, 20 µM was 6.7%. In addition, in series [3], the CL is reported as 0.19 L/h/kg, the Vdss is listed as 0.38 L/kg, the AUC(0-t) is 5.4 µg·h/mL and the highest level (Cmax) was 2.35 µg/mL. The same compound had a half-life in series [3] of 1.36 h. Also, half-maximal inhibition in series [4] (IC50) was put at 0.738 µM.
`CNC(=O)c1ccc(N2CCN(CC3Cc4[nH]c(=O)c(C)cc4CO3)CC2)c(Cl)n1` (centres unmarked) [Example 74, 6-Chloro-N-methyl-5-(4-((3-methyl-2-oxo-1,5,7,8-tetrahydro-2H-pyrano[4,3-b]pyridin-7-yl)methyl)piperazin-1-yl)picolinamide]: the IC50 in series [1] is over 1 µM. Besides, in series [2], the “inhibitory effects” value was “Conclusion: Compounds 2, 6, 45, 62, 67, 74, 83, 87, etc., of the present disclosure exhibited relatively weak inhibitory effects on the hERG potassium ion channel” and the inhibition at 2.5 min, 20 µM stood at 17.7%. In series [3], the Vdss is reported as 1.06 L/kg; the AUC(0-t) came to 17.1 µg·h/mL; the Cmax – broadly, the highest concentration seen after dosing – is 2.35 µg/mL; the half-life was 2.52 h. In series [4], this compound had an IC50 of over 1 µM.
